# From the Kinase Knowledgebase extract (Sharma et al. 2016)
# Key:
# PIK3CG (human) = PIK3CG (human) (UniProt P48736); experiment: Assessment of PIK3CG Kinase Activity
# PIK3CD (Human) = PIK3CD (Human) (UniProt O00329); experiment: Assessment of PIK3CD Kinase Activity
# PIK3CA (human) = PIK3CA (human) (UniProt P42336); experiment: Assessment of PIK3CA Kinase Activity
# Chain of PIK3CA (human) (P42336 whole entry, looked up): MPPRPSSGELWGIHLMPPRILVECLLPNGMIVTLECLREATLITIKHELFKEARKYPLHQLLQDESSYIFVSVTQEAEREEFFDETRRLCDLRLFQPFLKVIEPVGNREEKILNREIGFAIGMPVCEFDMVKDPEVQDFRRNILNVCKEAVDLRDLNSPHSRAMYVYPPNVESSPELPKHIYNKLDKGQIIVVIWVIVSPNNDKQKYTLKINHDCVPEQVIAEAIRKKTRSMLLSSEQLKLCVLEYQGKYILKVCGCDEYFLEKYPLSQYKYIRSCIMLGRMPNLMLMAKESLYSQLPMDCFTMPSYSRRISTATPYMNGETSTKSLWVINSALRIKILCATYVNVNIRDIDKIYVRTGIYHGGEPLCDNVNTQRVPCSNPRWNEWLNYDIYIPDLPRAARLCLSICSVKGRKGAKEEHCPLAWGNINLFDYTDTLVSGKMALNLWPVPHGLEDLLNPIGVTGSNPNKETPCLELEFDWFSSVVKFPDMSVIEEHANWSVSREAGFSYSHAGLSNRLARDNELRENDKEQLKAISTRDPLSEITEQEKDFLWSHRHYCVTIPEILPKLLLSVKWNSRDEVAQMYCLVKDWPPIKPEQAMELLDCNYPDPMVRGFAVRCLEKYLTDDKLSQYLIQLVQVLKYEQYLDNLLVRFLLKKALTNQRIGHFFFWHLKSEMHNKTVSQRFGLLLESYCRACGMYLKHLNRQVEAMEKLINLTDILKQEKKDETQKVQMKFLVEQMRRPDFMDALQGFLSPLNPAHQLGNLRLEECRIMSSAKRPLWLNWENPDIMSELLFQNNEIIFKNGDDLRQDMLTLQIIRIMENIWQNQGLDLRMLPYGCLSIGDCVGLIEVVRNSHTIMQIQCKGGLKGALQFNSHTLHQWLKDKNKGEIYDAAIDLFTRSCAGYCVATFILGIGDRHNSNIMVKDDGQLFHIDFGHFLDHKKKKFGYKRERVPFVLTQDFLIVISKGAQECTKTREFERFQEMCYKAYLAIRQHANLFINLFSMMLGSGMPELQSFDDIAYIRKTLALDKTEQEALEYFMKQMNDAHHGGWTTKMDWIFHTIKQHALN
# Chain of PIK3CG (human) (P48736 whole entry, looked up): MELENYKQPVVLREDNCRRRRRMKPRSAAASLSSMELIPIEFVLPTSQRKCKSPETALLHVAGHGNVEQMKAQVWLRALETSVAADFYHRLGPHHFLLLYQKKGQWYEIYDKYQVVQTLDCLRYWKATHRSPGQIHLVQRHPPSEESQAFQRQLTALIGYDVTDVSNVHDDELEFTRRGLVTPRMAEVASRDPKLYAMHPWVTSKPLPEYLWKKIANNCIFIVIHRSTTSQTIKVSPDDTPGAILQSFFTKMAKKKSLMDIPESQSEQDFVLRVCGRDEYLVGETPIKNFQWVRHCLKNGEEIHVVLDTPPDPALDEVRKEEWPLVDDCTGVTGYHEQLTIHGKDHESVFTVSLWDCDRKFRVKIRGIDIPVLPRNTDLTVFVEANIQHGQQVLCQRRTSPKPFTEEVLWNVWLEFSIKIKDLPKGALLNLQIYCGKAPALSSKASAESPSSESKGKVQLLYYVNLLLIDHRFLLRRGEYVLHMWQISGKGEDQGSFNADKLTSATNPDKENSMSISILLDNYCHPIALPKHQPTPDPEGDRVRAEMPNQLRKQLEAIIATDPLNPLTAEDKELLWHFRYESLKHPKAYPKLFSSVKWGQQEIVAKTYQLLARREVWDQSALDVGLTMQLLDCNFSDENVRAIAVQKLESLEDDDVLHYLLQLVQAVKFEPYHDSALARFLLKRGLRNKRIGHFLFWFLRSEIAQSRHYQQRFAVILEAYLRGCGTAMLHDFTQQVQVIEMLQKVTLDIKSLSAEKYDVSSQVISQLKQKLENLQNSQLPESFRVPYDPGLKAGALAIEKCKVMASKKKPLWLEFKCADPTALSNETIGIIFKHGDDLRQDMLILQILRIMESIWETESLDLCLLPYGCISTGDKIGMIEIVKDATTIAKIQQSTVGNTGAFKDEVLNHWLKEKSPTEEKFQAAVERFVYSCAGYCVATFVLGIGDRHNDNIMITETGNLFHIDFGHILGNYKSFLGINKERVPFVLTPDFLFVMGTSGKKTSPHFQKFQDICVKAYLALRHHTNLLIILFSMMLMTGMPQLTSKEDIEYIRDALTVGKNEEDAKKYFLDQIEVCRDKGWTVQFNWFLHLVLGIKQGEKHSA
# Chain of PIK3CD (Human) (O00329 whole entry, looked up): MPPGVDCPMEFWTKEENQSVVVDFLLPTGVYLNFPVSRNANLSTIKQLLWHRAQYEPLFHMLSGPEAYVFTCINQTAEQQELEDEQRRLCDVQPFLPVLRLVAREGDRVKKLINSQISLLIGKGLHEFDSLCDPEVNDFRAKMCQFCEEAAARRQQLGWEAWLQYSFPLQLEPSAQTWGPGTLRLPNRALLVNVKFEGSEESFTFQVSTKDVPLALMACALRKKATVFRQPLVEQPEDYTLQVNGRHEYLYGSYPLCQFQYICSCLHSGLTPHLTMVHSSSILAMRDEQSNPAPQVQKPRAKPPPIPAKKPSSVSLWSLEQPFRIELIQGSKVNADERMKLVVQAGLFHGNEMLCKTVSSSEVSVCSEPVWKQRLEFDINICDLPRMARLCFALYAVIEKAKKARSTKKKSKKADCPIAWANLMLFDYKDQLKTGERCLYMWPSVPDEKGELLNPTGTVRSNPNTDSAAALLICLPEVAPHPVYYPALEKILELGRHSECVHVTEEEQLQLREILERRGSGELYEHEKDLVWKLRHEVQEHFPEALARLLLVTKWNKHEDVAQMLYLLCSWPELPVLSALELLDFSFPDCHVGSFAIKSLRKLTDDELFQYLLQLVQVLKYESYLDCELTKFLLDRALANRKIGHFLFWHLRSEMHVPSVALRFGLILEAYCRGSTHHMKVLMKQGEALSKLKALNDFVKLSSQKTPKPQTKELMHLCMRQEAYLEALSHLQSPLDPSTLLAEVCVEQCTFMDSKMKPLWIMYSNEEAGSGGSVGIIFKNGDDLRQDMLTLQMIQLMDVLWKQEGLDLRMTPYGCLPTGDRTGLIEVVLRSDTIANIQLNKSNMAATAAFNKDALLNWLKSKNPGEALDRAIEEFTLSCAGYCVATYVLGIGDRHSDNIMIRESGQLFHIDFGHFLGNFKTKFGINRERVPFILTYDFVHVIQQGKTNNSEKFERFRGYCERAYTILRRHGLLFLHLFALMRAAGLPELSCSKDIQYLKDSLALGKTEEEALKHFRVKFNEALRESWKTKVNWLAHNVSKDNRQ
SMILES,IC50 (PIK3CG (human)),IC50 (PIK3CD (Human)),IC50 (PIK3CA (human))
C[C@H](Nc1nc(N)ncc1C#N)c1cc2cccc(-c3ccc(S(N)(=O)=O)cc3)c2c(=O)n1-c1ccccc1,< 100 nM,< 100 nM,
C[C@H](Nc1nc(N)ncc1C#N)c1cc2cccc(-c3cncc(C(F)(F)F)c3)c2c(=O)n1-c1ccccc1,< 100 nM,< 100 nM,
C[C@H](Nc1nc(N)ncc1C#N)c1cc2cccc(Cl)c2c(=O)n1-c1ccc(C#N)cc1,100 to 1000 nM,,> 10000 nM
C[C@H](Nc1nc(N)ncc1C#N)c1cc2cccc(-c3ccc(N(C)C)cc3)c2c(=O)n1-c1ccccc1,< 100 nM,< 100 nM,
C[C@H](Nc1nc(N)ncc1C#N)c1cc2cccc(Cl)c2c(=O)n1-c1c(F)cc(F)cc1F,< 100 nM,100 to 1000 nM,> 10000 nM
C[C@H](Nc1nc(N)ncc1C#N)c1cc2cccc(Cl)c2c(=O)n1-c1ccc2c(c1)OCO2,< 100 nM,100 to 1000 nM,> 10000 nM
Cc1cncc(-c2cccc3cc([C@H](C)Nc4nc(N)ncc4C#N)n(-c4cccc(F)c4)c(=O)c23)c1,< 100 nM,< 100 nM,100 to 1000 nM
Cc1cccc2cc([C@H](C)Nc3nc(N)ncc3C(F)(F)F)n(-c3cccc(F)c3)c(=O)c12,< 100 nM,< 100 nM,> 10000 nM
CC(C)Oc1cncc(-c2cccc3cc([C@H](C)Nc4nc(N)ncc4C#N)n(-c4ccccc4)c(=O)c23)c1,< 100 nM,< 100 nM,< 100 nM
COc1ccc(-n2c([C@H](C)Nc3nc(N)ncc3C#N)cc3cccc(Cl)c3c2=O)cc1,< 100 nM,100 to 1000 nM,> 10000 nM
C[C@H](Nc1nc(N)ncc1C#N)c1cc2cccc(Cl)c2c(=O)n1CC(C)(C)C,100 to 1000 nM,100 to 1000 nM,> 10000 nM
CC(C)n1cc(-c2cccc3cc([C@H](C)Nc4nc(N)ncc4C#N)n(-c4ccccc4)c(=O)c23)ccc1=O,< 100 nM,< 100 nM,
C[C@H](Nc1nc(N)ncc1C#N)c1nc2cccc(-c3ccnnc3)c2c(=O)n1-c1ccccc1,< 100 nM,< 100 nM,
C[C@H](Nc1nc(N)ncc1C#N)c1cc2cccc(-c3ccc(C#N)cc3)c2c(=O)n1-c1ccccc1,< 100 nM,< 100 nM,
C[C@H](Nc1nc(N)ncc1C#N)c1cc2cccc(-c3cccc(NS(C)(=O)=O)c3)c2c(=O)n1-c1ccccc1,< 100 nM,< 100 nM,
CCOc1cc(-c2cccc3cc([C@H](C)Nc4nc(N)ncc4C#N)n(-c4ccccc4)c(=O)c23)ccn1,< 100 nM,< 100 nM,100 to 1000 nM
C[C@H](Nc1nc(N)ncc1C#N)c1cc2cccc(-c3ccc4c(c3)OCO4)c2c(=O)n1-c1ccccc1,< 100 nM,< 100 nM,
COc1cc(-c2cccc3cc([C@H](C)Nc4nc(N)ncc4-c4cnc(OC)s4)n(-c4ccccc4)c(=O)c23)ccn1,< 100 nM,< 100 nM,100 to 1000 nM
C[C@H](Nc1nc(N)ncc1C#N)c1cc2cccc(CC#N)c2c(=O)n1-c1ccccc1,< 100 nM,< 100 nM,> 10000 nM

SMILES,IC50 (PIK3CG (human)),IC50 (PIK3CD (Human)),IC50 (PIK3CA (human))
COc1cncc(-c2cccc3cc([C@H](C)Nc4nc(N)ncc4C(N)=O)n(-c4ccccc4)c(=O)c23)c1,< 100 nM,< 100 nM,100 to 1000 nM
COc1cncc(-c2cccc3cc([C@H](C)Nc4nc(N)ncc4C#N)n(-c4cccc(F)c4)c(=O)c23)c1,< 100 nM,< 100 nM,100 to 1000 nM
C[C@H](Nc1nc(N)ncc1C#N)c1cc2cccc(Cl)c2c(=O)n1Cc1ccccc1,100 to 1000 nM,< 100 nM,> 10000 nM
COc1ncc(-c2cccc3cc([C@H](C)Nc4nc(N)ncc4C#N)n(C4CC4)c(=O)c23)cn1,100 to 1000 nM,< 100 nM,
C[C@H](Nc1nc(N)ncc1C#N)c1cc2cccc(-c3ccc(NS(C)(=O)=O)cc3)c2c(=O)n1-c1ccccc1,< 100 nM,< 100 nM,
COc1cc(-c2cccc3cc([C@H](C)Nc4nc(N)ncc4C#N)n(-c4cccc(F)c4)c(=O)c23)ccn1,< 100 nM,< 100 nM,100 to 1000 nM
C[C@H](Nc1nc(N)ncc1C#N)c1cc2cccc(-c3ccnnc3)c2c(=O)n1-c1cccc(F)c1,100 to 1000 nM,< 100 nM,> 10000 nM
C[C@H](Nc1nc(N)ncc1C#N)c1cc2cccc(-c3ccc(=O)n(C4CCCC4)c3)c2c(=O)n1-c1ccccc1,< 100 nM,< 100 nM,100 to 1000 nM
COc1cc(-c2cccc3nc([C@H](C)Nc4nc(N)ncc4C#N)n(-c4ccccc4)c(=O)c23)ccn1,< 100 nM,< 100 nM,
C[C@H](Nc1nc(N)ncc1C#N)c1cc2ccccc2c(=O)n1-c1ccccc1,< 100 nM,< 100 nM,
C[C@H](Nc1nc(N)ncc1C#N)c1cc2cccc(Cl)c2c(=O)n1C1CCCCC1,< 100 nM,< 100 nM,
C[C@H](Nc1nc(N)ncc1C#N)c1cc2cccc(C#CCCC(=O)N3CCCC3)c2c(=O)n1-c1ccccc1,< 100 nM,< 100 nM,
C[C@H](Nc1nc(N)ncc1C#N)c1cc2cccc(-c3cccc(S(N)(=O)=O)c3)c2c(=O)n1-c1ccccc1,< 100 nM,< 100 nM,
Cc1cc(-c2cccc3cc([C@H](C)Nc4nc(N)ncc4C#N)n(-c4cccc(F)c4)c(=O)c23)ccn1,< 100 nM,< 100 nM,
Cc1cc(-c2cccc3nc([C@H](C)Nc4nc(N)ncc4C#N)n(-c4ccccc4)c(=O)c23)ccn1,< 100 nM,< 100 nM,
C[C@H](Nc1nc(N)ncc1C#N)c1nc2cccc(-c3cnn(C)c3)c2c(=O)n1-c1ccccc1,< 100 nM,< 100 nM,
C[C@H](Nc1nc(N)ncc1C#N)c1cc2cccc(-c3ccnc(NS(C)(=O)=O)c3)c2c(=O)n1-c1ccccc1,< 100 nM,< 100 nM,
C[C@H](Nc1nc(N)ncc1C#N)c1cc2cccc(-c3ccc(=O)n(CC4CC4)c3)c2c(=O)n1-c1ccccc1,< 100 nM,< 100 nM,
C[C@H](Nc1nc(N)ncc1C#N)c1cc2cccc(-c3cncc(S(C)(=O)=O)c3)c2c(=O)n1-c1ccccc1,< 100 nM,< 100 nM,

# Continued, values first:
IC50 (PIK3CG (human)),IC50 (PIK3CD (Human)),IC50 (PIK3CA (human)),SMILES
< 100 nM,< 100 nM,> 10000 nM,C[C@H](Nc1nc(N)ncc1C#N)c1cc2cccc(O)c2c(=O)n1-c1ccccc1
< 100 nM,< 100 nM,100 to 1000 nM,Cc1cccc(-c2cccc3cc([C@H](C)Nc4nc(N)ncc4C#N)n(-c4ccccc4)c(=O)c23)c1
< 100 nM,100 to 1000 nM,> 10000 nM,C[C@H](Nc1nc(N)ncc1-c1ccccn1)c1cc2cccc(Cl)c2c(=O)n1-c1ccccc1
< 100 nM,< 100 nM,,COc1ncc(-c2cccc3cc([C@H](C)Nc4nc(N)ncc4C#N)n(-c4ccccc4)c(=O)c23)s1
< 100 nM,< 100 nM,,C[C@H](Nc1nc(N)ncc1C#N)c1cc2cccc(-c3ccc(=O)n(C)c3)c2c(=O)n1-c1ccccc1
< 100 nM,< 100 nM,> 10000 nM,Cc1ccc(-n2c([C@H](C)Nc3nc(N)ncc3C#N)cc3cccc(Cl)c3c2=O)cc1
< 100 nM,< 100 nM,,C[C@H](Nc1nc(N)ncc1C#N)c1cc2cccc(-c3ccnc(N)c3)c2c(=O)n1-c1ccccc1
< 100 nM,< 100 nM,< 100 nM,COc1cccc(-c2cccc3cc([C@H](C)Nc4nc(N)ncc4C#N)n(-c4ccccc4)c(=O)c23)c1
< 100 nM,< 100 nM,100 to 1000 nM,C[C@H](Nc1nc(N)ncc1C#N)c1cc2cccc(-c3ccc(F)cc3)c2c(=O)n1-c1ccccc1
< 100 nM,< 100 nM,,COc1ccc(-c2cccc3cc([C@H](C)Nc4nc(N)ncc4C#N)n(-c4ccccc4)c(=O)c23)cc1
< 100 nM,< 100 nM,,Cc1cncc(-c2cccc3cc([C@H](C)Nc4nc(N)ncc4C#N)n(-c4ccccc4)c(=O)c23)c1
< 100 nM,< 100 nM,,C[C@H](Nc1nc(N)ncc1-c1nccs1)c1cc2cccc(Cl)c2c(=O)n1-c1ccccc1
< 100 nM,< 100 nM,,CCn1cc(-c2cccc3cc([C@H](C)Nc4nc(N)ncc4C#N)n(-c4ccccc4)c(=O)c23)ccc1=O
< 100 nM,100 to 1000 nM,> 10000 nM,C[C@H](Nc1nc(N)ncc1-c1ccncc1)c1cc2cccc(Cl)c2c(=O)n1-c1ccccc1
< 100 nM,< 100 nM,100 to 1000 nM,C[C@H](Nc1nc(N)ncc1C#N)c1cc2cccc(-c3cccc(Cl)c3)c2c(=O)n1-c1ccccc1
< 100 nM,< 100 nM,100 to 1000 nM,COc1cc(-c2cccc3cc([C@H](C)Nc4nc(N)ncc4-c4cnc(C)s4)n(-c4ccccc4)c(=O)c23)ccn1
< 100 nM,100 to 1000 nM,> 10000 nM,C[C@H](Nc1nc(N)ncc1-c1cnn(C)c1)c1cc2cccc(Cl)c2c(=O)n1-c1ccccc1
< 100 nM,< 100 nM,> 10000 nM,C[C@H](Nc1nc(N)ncc1-c1cccs1)c1cc2cccc(Cl)c2c(=O)n1-c1ccccc1
< 100 nM,< 100 nM,,C[C@H](Nc1nc(N)ncc1C#N)c1cc2cccc(-c3ccc(Cl)cc3)c2c(=O)n1-c1ccccc1
< 100 nM,< 100 nM,,C[C@H](Nc1nc(N)ncc1C#N)c1cc2cccc(-c3cnoc3)c2c(=O)n1-c1ccccc1
< 100 nM,< 100 nM,100 to 1000 nM,Cc1cc(-c2cccc3cc([C@H](C)Nc4nc(N)ncc4C#N)n(-c4ccccc4)c(=O)c23)ccn1
< 100 nM,< 100 nM,,Cc1ncc(-c2cccc3cc([C@H](C)Nc4nc(N)ncc4C#N)n(-c4ccccc4)c(=O)c23)s1
< 100 nM,< 100 nM,,C[C@H](Nc1nc(N)ncc1C#N)c1cc2cccc(-c3c[nH]nn3)c2c(=O)n1-c1ccccc1
< 100 nM,< 100 nM,,C[C@H](Nc1nc(N)ncc1C#N)c1cc2cccc(-c3cccc(C#N)c3)c2c(=O)n1-c1ccccc1
< 100 nM,< 100 nM,,C[C@H](Nc1nc(N)ncc1C#N)c1cc2cccc(-c3cncc(F)c3)c2c(=O)n1-c1ccccc1
< 100 nM,< 100 nM,,COc1ccc(-c2cccc3cc([C@H](C)Nc4nc(N)ncc4C#N)n(-c4ccccc4)c(=O)c23)cn1
